Assay results taken from ChEMBL document CHEMBL1201862, “PubChem BioAssay data set” (2004).
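Cells were grown in 96-well plates and exposed to each compound for 48 hours at five concentrations; endpoints were interpolated linearly between bracketing concentrations, or set to the highest concentration if not reached. Abbreviation: GI50, concentration required for 50% inhibition of growth.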 Activity calls are given as the source filed them. No stated cut-off is given here; in the data, active = GI50 up to about 1.1 µM and inactive = higher.

Key:
Assay in all cases: NCI anticancer screen, dose series, 48 h
COLO 205 = tested on: COLO 205
NCI-H522 = tested on: NCI-H522
RPMI-8226 = tested on: RPMI-8226
MOLT-4 = tested on: MOLT-4
KM12 = tested on: KM12
HCT-15 = tested on: HCT-15
U-251 = tested on: U-251
OVCAR-3 = tested on: OVCAR-3
NCI-H460 = tested on: NCI-H460
786-0 = tested on: 786-0
SF-295 = tested on: SF-295
KM-20L2 = tested on: KM-20L2
A498 = tested on: A498
SR = tested on: SR
HCC 2998 = tested on: HCC 2998
UACC-62 = tested on: UACC-62
EKVX = tested on: EKVX
Malme-3M = tested on: Malme-3M
SW-620 = tested on: SW-620
SNB-75 = tested on: SNB-75
OVCAR-5 = tested on: OVCAR-5
SK-OV-3 = tested on: SK-OV-3
HT-29 = tested on: HT-29
TK-10 = tested on: TK-10
IGROV-1 = tested on: IGROV-1
NCI-H226 = tested on: NCI-H226
A549 = tested on: A549
M14 = tested on: M14
HOP-62 = tested on: HOP-62
LXFL 529 = tested on: LXFL 529
DMS-114 = tested on: DMS-114
SN12C = tested on: SN12C
HOP-18 = tested on: HOP-18
LOX IMVI = tested on: LOX IMVI
SNB-19 = tested on: SNB-19
SK-MEL-2 = tested on: SK-MEL-2
UACC-257 = tested on: UACC-257
SK-MEL-5 = tested on: SK-MEL-5
HOP-92 = tested on: HOP-92
SNB-78 = tested on: SNB-78
RXF 393 = tested on: RXF 393
SF-539 = tested on: SF-539
CAKI-1 = tested on: CAKI-1
OVCAR-4 = tested on: OVCAR-4
NCI-H23 = tested on: NCI-H23
UO-31 = tested on: UO-31
DMS-273 = tested on: DMS-273
CCRF-CEM = tested on: CCRF-CEM
HCT-116 = tested on: HCT-116
DLD-1 = tested on: DLD-1
ACHN = tested on: ACHN
HL-60 = tested on: HL-60
SF-268 = tested on: SF-268
K562 = tested on: K562

With COC(=O)c1cc2c3c(ccc2[nH]1)N(C(=O)c1cc2c4c(ccc2[nH]1)N(C(=O)c1cc2c5c(ccc2[nH]1)N(C(N)=O)CC5)CC4)CC3 the GI50 (COLO 205) was 2.72 µM (inactive), the GI50 (NCI-H522) was 1.61 µM (inactive) and the GI50 (RPMI-8226) was 7.89 µM (inactive). For the same molecule, the GI50 (MOLT-4) was > 23 µM (inactive), the GI50 (KM12) was 6.82 µM (inactive) and the GI50 (HCT-15) was 12 µM. The GI50 (U-251) was 2.17 µM (inactive), the GI50 (OVCAR-3) was 3.9 µM (inactive) and the GI50 (NCI-H460) was 3.24 µM (inactive). For the same molecule, the GI50 (786-0) was 3.05 µM (inactive), the GI50 (SF-295) was 3.12 µM (inactive) and the GI50 (KM-20L2) was > 63.8 µM (inactive). For the same molecule, the GI50 (A498) was 1.29 µM (inactive), the GI50 (SR) was 5.58 µM (inactive) and the GI50 (HCC 2998) was 5.45 µM (inactive). The GI50 (UACC-62) was 0.845 µM (active), the GI50 (EKVX) was 2.17 µM (inactive) and the GI50 (Malme-3M) was 1.24 µM (inactive). For the same molecule, the GI50 (SW-620) was 7.85 µM (inactive), the GI50 (SNB-75) was 2.11 µM (inactive) and the GI50 (OVCAR-5) was > 52.7 µM (inactive). The GI50 (SK-OV-3) was 2.1 µM (inactive), the GI50 (HT-29) was 6.58 µM (inactive) and the GI50 (TK-10) was 13.1 µM (inactive). For the same molecule, the GI50 (IGROV-1) was 3.37 µM (inactive), the GI50 (NCI-H226) was 1.71 µM (inactive) and the GI50 (A549) was 3 µM (inactive). The GI50 (M14) was 1.87 µM (inactive), the GI50 (HOP-62) was 2.29 µM (inactive) and the GI50 (LXFL 529) was 2.07 µM (inactive). For the same molecule, the GI50 (DMS-114) was 3.7 µM (inactive), the GI50 (SN12C) was 2.97 µM (inactive) and the GI50 (HOP-18) was > 100 µM (inactive). The GI50 (LOX IMVI) was 1.88 µM (inactive), the GI50 (SNB-19) was 2.61 µM (inactive) and the GI50 (SK-MEL-2) was 3.18 µM (inactive). The GI50 (UACC-257) was > 22.6 µM (inactive), the GI50 (SK-MEL-5) was 2.07 µM (inactive) and the GI50 (HOP-92) was 2.03 µM (inactive). The GI50 (SNB-78) was > 100 µM (inactive), the GI50 (RXF 393) was 2.17 µM (inactive) and the GI50 (SF-539) was 3.6 µM (inactive). The GI50 (CAKI-1) was 2 µM (inactive), the GI50 (OVCAR-4) was 3.55 µM (inactive) and the GI50 (NCI-H23) was 2.94 µM (inactive). The GI50 (UO-31) was 3.94 µM (inactive), the GI50 (DMS-273) was 4.06 µM (inactive) and the GI50 (CCRF-CEM) was 4.58 µM (inactive). The GI50 (HCT-116) was 2.24 µM (inactive), the GI50 (DLD-1) was > 21.1 µM (inactive) and the GI50 (ACHN) was 3.13 µM (inactive). The GI50 (HL-60) was 6.62 µM (inactive), the GI50 (SF-268) was 2.17 µM (inactive) and the GI50 (K562) was 2.44 µM (inactive).
